In one test the target is T1, rat CB2 receptor (rCB2) (Rattus norvegicus, UniProt Q9QZN9).
T1 sequence (Q9QZN9 1-360): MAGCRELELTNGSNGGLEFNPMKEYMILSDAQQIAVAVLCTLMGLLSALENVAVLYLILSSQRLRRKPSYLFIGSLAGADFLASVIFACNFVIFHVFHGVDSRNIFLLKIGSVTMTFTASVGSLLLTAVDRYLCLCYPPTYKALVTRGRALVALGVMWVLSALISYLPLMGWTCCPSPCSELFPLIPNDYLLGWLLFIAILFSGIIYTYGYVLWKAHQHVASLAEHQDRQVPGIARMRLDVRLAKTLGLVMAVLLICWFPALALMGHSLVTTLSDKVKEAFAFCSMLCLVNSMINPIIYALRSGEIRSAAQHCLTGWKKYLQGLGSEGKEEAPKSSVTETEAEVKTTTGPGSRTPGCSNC
Put plainly: cell-based. The format is cell-based. The note with it: for +/− RCB2: agonist or inverse agonist at rCB2. The procedure, abridged:
(§1)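 Readout: LANCE TR-FRET cAMP, back-calculated from a concurrent standard curve and scaled between forskolin-only and forskolin + 1 μM CP55,940 wells. EC50 and intrinsic activity came from four-parameter fits.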

The target of test [1] is human CB1 receptor (hCB1) (Homo sapiens, UniProt P21554). Put plainly: cell-based. Conditions: for +/− HCB1: agonist or inverse agonist at hCB1. The test is classed as cell-based. A digest of the protocol: as §1
human CB1 receptor (hCB1), sequence (P21554 whole entry): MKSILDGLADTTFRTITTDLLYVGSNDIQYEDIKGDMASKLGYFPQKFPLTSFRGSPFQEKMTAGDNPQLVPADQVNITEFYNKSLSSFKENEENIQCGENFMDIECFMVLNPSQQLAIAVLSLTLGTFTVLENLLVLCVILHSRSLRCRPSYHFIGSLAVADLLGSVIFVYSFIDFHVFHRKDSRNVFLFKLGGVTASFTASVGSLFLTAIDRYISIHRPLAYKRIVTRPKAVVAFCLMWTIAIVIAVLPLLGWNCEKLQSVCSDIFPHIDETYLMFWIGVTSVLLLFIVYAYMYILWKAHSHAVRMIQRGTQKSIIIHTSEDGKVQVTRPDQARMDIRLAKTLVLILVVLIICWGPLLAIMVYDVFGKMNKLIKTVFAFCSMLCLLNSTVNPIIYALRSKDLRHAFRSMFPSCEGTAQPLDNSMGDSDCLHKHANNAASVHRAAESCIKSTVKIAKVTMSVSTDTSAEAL

The structures appear in SMILES notation. pEC50: −log10 of the molar value. Read-outs that look alike come from different tables or passages of the source.

What is called pEC50 is the negative decadic logarithm of the EC50, by convention in mol/L. A higher pEC50 goes with a small EC50. `CCN1CCCn2c(-c3ccccc3)nc(C(=O)N[C@H](c3nc(C)no3)C(C)(C)C)c2C1` [Compound 524, (S)-N-(2,2-dimethyl-1-(3-methyl-1,2,4-oxadiazol-5-yl)propyl)-8-ethyl-3-phenyl-6,7,8,9-tetrahydro-5H-imidazo[1,5-a][1,4]diazepine-1-carboxamide]: at rat CB2 receptor (rCB2), the “+/− RCB2” value is given as “−”. For the same compound, the pEC50 in test [1] was under 5.00.

For the compound `CNC(=O)[C@@H](NC(=O)c1nc(-c2ccc(C(=O)N(C)C)c(F)c2)n2c1CN(C)CCC2)C(C)(C)C` [Compound 426, (S)-N-(3,3-dimethyl-1-(methylamino)-1-oxobutan-2-yl)-3-(4-(dimethylcarbamoyl)-3-fluorophenyl)-8-methyl-6,7,8,9-tetrahydro-5H-imidazo[1,5-a][1,4]diazepine-1-carboxamide], the pEC50 (on rat CB2 receptor (rCB2); in test [1]) was under 5.00 throughout.

As for `Cc1ccc(-c2nc(C(=O)N[C@H](C(=O)O)C(C)(C)C)c3n2CCCN(C(=O)OC(C)(C)C)C3)c(F)c1` [Compound 516, (S)-2-(8-(tert-butoxycarbonyl)-3-(2-fluoro-4-methylphenyl)-6,7,8,9-tetrahydro-5H-imidazo[1,5-a][1,4]diazepine-1-carboxamido)-3,3-dimethylbutanoic acid], on rat CB2 receptor (rCB2), the “+/− RCB2” value was “−”. The compound also gave a pEC50 in test [1] of under 5.00.

For `CNC(=O)[C@H](CC(C)(C)C)NC(=O)c1nc(-c2cc(Cl)c(F)cc2F)n2c1CN(C)CCC2` [Compound 554, (S)-3-(5-chloro-2,4-difluorophenyl)-N-(4,4-dimethyl-1-(methylamino)-1-oxopentan-2-yl)-8-methyl-6,7,8,9-tetrahydro-5H-imidazo[1,5-a][1,4]diazepine-1-carboxamide], at rat CB2 receptor (rCB2), the “+/− RCB2” value is recorded as “+”. Also, the “+/− HCB1” value in test [1] was “+”.

For the compound `CNC(=O)[C@@H](NC(=O)c1nc(-c2ccc(C(F)(F)F)cc2F)n2c1CN(C)CCC2)C(C)(C)C` [Compound 368, (S)-N-(3,3-dimethyl-1-(methylamino)-1-oxobutan-2-yl)-3-(2-fluoro-4-(trifluoromethyl)phenyl)-8-methyl-6,7,8,9-tetrahydro-5H-imidazo[1,5-a][1,4]diazepine-1-carboxamide], at rat CB2 receptor (rCB2), the “+/− RCB2” value is reported as “+”. In addition, in test [1], the “+/− HCB1” value was “+”.

As to `COC(=O)N1CCn2c(-c3ccccc3)nc(C(=O)NCC3CCOCC3)c2C1` [Compound 186, methyl 3-phenyl-1-((tetrahydro-2H-pyran-4-yl)methylcarbamoyl)-5,6-dihydroimidazo[1,5-a]pyrazine-7(8H)-carboxylate], the “+/− RCB2” value at rat CB2 receptor (rCB2) is reported as “−”. Further, the pEC50 in test [1] was under 5.00.

`CNC(=O)[C@@H](NC(=O)c1nc(C2=CCC(C)CC2)n2c1CN(C)CC2)C(C)(C)C` (stereo partly drawn) [Compound 270, N-((S)-3,3-dimethyl-1-(methylamino)-1-oxobutan-2-yl)-7-methyl-3-(4-methylcyclohex-1-enyl)-5,6,7,8-tetrahydroimidazo[1,5-a]pyrazine-1-carboxamide]: the “+/− RCB2” value at rat CB2 receptor (rCB2) is “−”. In addition, the pEC50 in test [1] is under 5.00.

Consider `CNC(=O)[C@@H](NC(=O)c1nc(-c2ccccc2)n2c1CN(C(=O)CC(C)(C)C)CC2)C(C)(C)C` [Compound 188, (S)-N-(3,3-dimethyl-1-(methylamino)-1-oxobutan-2-yl)-7-(3,3-dimethylbutanoyl)-3-phenyl-5,6,7,8-tetrahydroimidazo[1,5-a]pyrazine-1-carboxamide], for which the “+/− RCB2” value on rat CB2 receptor (rCB2) is reported as “−”. The pEC50 in test [1] is under 5.00.

For `CNC(=O)[C@@H](NC(=O)c1nc(-c2ccsc2)n2c1CNCC2)C(C)(C)C` [Compound 11, (S)-N-(3,3-dimethyl-1-(methylamino)-1-oxobutan-2-yl)-3-(thiophen-3-yl)-5,6,7,8-tetrahydroimidazo[1,5-a]pyrazine-1-carboxamide], on rat CB2 receptor (rCB2), the “+/− RCB2” value is recorded as “+”. Moreover, the pEC50 in test [1] is under 5.00.

`CNC(=O)[C@@H](NC(=O)c1nc(-c2ccccc2C(F)(F)F)n2c1CN(C)CCC2)C(C)(C)C` [Compound 399, (S)-N-(3,3-dimethyl-1-(methylamino)-1-oxobutan-2-yl)-8-methyl-3-(2-(trifluoromethyl)phenyl)-6,7,8,9-tetrahydro-5H-imidazo[1,5-a][1,4]diazepine-1-carboxamide]: the “+/− RCB2” value at rat CB2 receptor (rCB2) is given as “+”. Moreover, the pEC50 in test [1] was under 5.00.

As for `CNC(=O)[C@@H](NC(=O)c1nc(/C=C/C(C)(C)C)n2c1CN(C)CC2)C(C)(C)C` [Compound 263, (S,E)-N-(3,3-dimethyl-1-(methylamino)-1-oxobutan-2-yl)-3-(3,3-dimethylbut-1-enyl)-7-methyl-5,6,7,8-tetrahydroimidazo[1,5-a]pyrazine-1-carboxamide], the “+/− RCB2” value on rat CB2 receptor (rCB2) was “+”. In test [1], this compound gave a pEC50 of under 5.00.

Consider `CNC(=O)[C@@H](NC(=O)c1nc(-c2ccccc2)n2c1CN(CCO)CC2)C(C)(C)C` [Compound 153, (S)-N-(3,3-dimethyl-1-(methylamino)-1-oxobutan-2-yl)-7-(2-hydroxyethyl)-3-phenyl-5,6,7,8-tetrahydroimidazo[1,5-a]pyrazine-1-carboxamide], for which the “+/− RCB2” value on rat CB2 receptor (rCB2) is on record as “−”. In test [1], the pEC50 was under 5.00.

As for `CC(C)CN1CCn2c(-c3ccccc3)nc(C(=O)N[C@H](C)C(C)(C)C)c2C1` [Compound 52, (R)-N-(3,3-dimethylbutan-2-yl)-7-isobutyl-3-phenyl-5,6,7,8-tetrahydroimidazo[1,5-a]pyrazine-1-carboxamide], the “+/− RCB2” value at rat CB2 receptor (rCB2) is listed as “−”. Besides, the pEC50 in test [1] was under 5.00.

As a reminder, the EC50 is the concentration that produces a half-maximal response. On to `CN1CCn2c(-c3ccc(Cl)cc3F)nc(C(=O)NCc3ccc4[nH]c(=O)[nH]c4c3)c2C1` [Compound 228, 3-(4-chloro-2-fluorophenyl)-7-methyl-N-((2-oxo-2,3-dihydro-1H-benzo[d]imidazol-5-yl)methyl)-5,6,7,8-tetrahydroimidazo[1,5-a]pyrazine-1-carboxamide], for which the “+/− RCB2” value on rat CB2 receptor (rCB2) is listed as “−”. In test [1] (groups >100 nM-10 μM and >10 μM, cAMP, CHO-K1 hCB1, read-out: EC50 HCB1), the EC50 was over 10000 nM.

In the case of `CNC(=O)[C@@H](NC(=O)c1nc(CCC2CCCCC2)n2c1CN(C)CCC2)C(C)(C)C` [Compound 493, (S)-3-(2-cyclohexylethyl)-N-(3,3-dimethyl-1-(methylamino)-1-oxobutan-2-yl)-8-methyl-6,7,8,9-tetrahydro-5H-imidazo[1,5-a][1,4]diazepine-1-carboxamide], at rat CB2 receptor (rCB2), the “+/− RCB2” value is listed as “−”. Also, the pEC50 in test [1] was under 5.00.

Regarding `CC(C)CNC(=O)[C@@H](NC(=O)c1nc(-c2ccccc2)n2c1CN(C)CCC2)C(C)(C)C` [Compound 474, (S)-N-(1-(isobutylamino)-3,3-dimethyl-1-oxobutan-2-yl)-8-methyl-3-phenyl-6,7,8,9-tetrahydro-5H-imidazo[1,5-a][1,4]diazepine-1-carboxamide], the “+/− RCB2” value on rat CB2 receptor (rCB2) is “+”. Besides, in test [1], the pEC50 was under 5.00.

As to `CCNC(=O)[C@@H](NC(=O)c1nc(-c2ccccc2)n2c1CN(C)CCC2)C(C)(C)C` [Compound 478, (S)-N-(1-(ethylamino)-3,3-dimethyl-1-oxobutan-2-yl)-8-methyl-3-phenyl-6,7,8,9-tetrahydro-5H-imidazo[1,5-a][1,4]diazepine-1-carboxamide], on rat CB2 receptor (rCB2), the “+/− RCB2” value is reported as “+”. The pEC50 in test [1] was under 5.00.

In the case of `CNC(=O)[C@@H](NC(=O)c1nc(-c2ccc(C3CC(=O)NN3)cc2)n2c1CN(C)CCC2)C(C)(C)C` (stereo partly drawn) [Compound 428, N-((S)-3,3-dimethyl-1-(methylamino)-1-oxobutan-2-yl)-8-methyl-3-(4-(5-oxopyrazolidin-3-yl)phenyl)-6,7,8,9-tetrahydro-5H-imidazo[1,5-a][1,4]diazepine-1-carboxamide], the pEC50 (on rat CB2 receptor (rCB2); in test [1]) was under 5.00 each time.

Take `CNC(=O)[C@@H](NC(=O)c1nc(-c2cccc(C(N)=O)c2)n2c1CN(C)CCC2)C(C)(C)C` [Compound 422, (S)-3-(3-carbamoylphenyl)-N-(3,3-dimethyl-1-(methylamino)-1-oxobutan-2-yl)-8-methyl-6,7,8,9-tetrahydro-5H-imidazo[1,5-a][1,4]diazepine-1-carboxamide]: the pEC50 (on rat CB2 receptor (rCB2); in test [1]) was under 5.00 each time.

Take `CNC(=O)[C@@H](NC(=O)c1nc(-c2cccc3cccnc23)n2c1CN(C)CCC2)C(C)(C)C` [Compound 444]: the “+/− RCB2” value on rat CB2 receptor (rCB2) is “−”. In test [1], the pEC50 was under 5.00.

For the compound `CNC(=O)[C@@H](NC(=O)c1nc(-c2ccccc2)n2c1CN(S(=O)(=O)CC(C)C)CC2)C(C)(C)C` [Compound 95, (S)-N-(3,3-dimethyl-1-(methylamino)-1-oxobutan-2-yl)-7-(isobutylsulfonyl)-3-phenyl-5,6,7,8-tetrahydroimidazo[1,5-a]pyrazine-1-carboxamide], the “+/− RCB2” value at rat CB2 receptor (rCB2) is reported as “−”. The pEC50 in test [1] is under 5.00.

`CN1CCCn2c(-c3cc(Cl)ccc3F)nc(C(=O)N[C@H](C(N)=O)C(C)(C)C)c2C1` [Compound 574, (S)-N-(1-amino-3,3-dimethyl-1-oxobutan-2-yl)-3-(5-chloro-2-fluorophenyl)-8-methyl-6,7,8,9-tetrahydro-5H-imidazo[1,5-a][1,4]diazepine-1-carboxamide]: the “+/− RCB2” value at rat CB2 receptor (rCB2) is reported as “+”. In test [1], the “+/− HCB1” value is given as “+”.

Consider `CN1CCCn2c(-c3ccc(Cl)cc3F)nc(C(=O)N[C@@H](CC(C)(C)C)C(N)=O)c2C1` [Compound 584, (S)-N-(1-amino-4,4-dimethyl-1-oxopentan-2-yl)-3-(4-chloro-2-fluorophenyl)-8-methyl-6,7,8,9-tetrahydro-5H-imidazo[1,5-a][1,4]diazepine-1-carboxamide], for which, at rat CB2 receptor (rCB2), the “+/− RCB2” value is given as “+”. In addition, in test [1], the “+/− HCB1” value is listed as “+”.

For the origin of these results see patent publication US7517874B2 (priority 2007, dated 2009).
